Test results: publication PMC10269165 (Antimicrobial Agents and Chemotherapy, 2023)

Test system: susceptible isolate of H. contortus, exsheathed L3 larvae
Experiment: Larval motility assay (LMA), Worminator
Assay type: cell-based, Haemonchus contortus
Details: for anthelmintic activity in LMA: first round, up to 125 μM, any time point
Text: The H. contortus isolates used were TxPh-2011-S (Texas A&M University, USA) and UGA MDR 2020 (University of Georgia Athens, USA). TxPh-2011-S (Texas A&M University, USA) was originally isolated from Pronghorn antelope in West Texas in 2011 and is fully drug susceptible, phenotypically determined by the DrenchRite larval development assay (LDA; Microbial Screening Technologies, Kemps Creek, Australia). To establish this as a laboratory isolate, it was initially passaged in goats at Texas A&M University and then at The University of Georgia using both goats and sheep, and it is currently maintained in lambs at Louisiana State University. A nemabiome assay ([69]) was conducted at the University of Calgary to confirm that the isolate is 100% H. contortus. The UGA MDR 2020 (University of Georgia Athens, USA) isolate is resistant to ivermectin, benzimidazoles, levamisole, and moxidectin, as determined by the DrenchRite LDA. To establish this as a laboratory isolate, feces collected from a sheep farm in Georgia with known history of multiple anthelmintic resistance were cultured. Two donor goats were infected with the larvae recovered, which were morphologically ([70]) identified as 89% H. contortus. A fecal egg count reduction test (FECRT) was then performed in the infected goats. First, a combination treatment with albendazole at 15 mg/kg and ivermectin at 0.4 mg/kg was performed, followed by a treatment with levamisole at 12 mg/kg. Later, and to confirm resistance to moxidectin, another treatment was administered using a dose of 0.4 mg/kg of moxidectin. Posttreatment feces were recovered, coprocultures were established, and L3 larvae were identified as 100% H. contortus. Resistance to all drugs was subsequently confirmed using a DrenchRite assay.
For LMAs, the first phase testing using compounds NSC133100 and NSC177383 was done using the Worminator system in parallel with the LDA. Initial stock solutions of 12.5 mM were prepared for each compound using 100% DMSO as a solvent. Initial stock solutions (25 μL) were then diluted in 475 μL of culture media to yield working stock solutions of 625.00, 156.30, 39.10, 9.80, 2.40, 0.60, 0.20, 0.04, and 0.00 μM in 5% DMSO for each drug. In plate, 200 μL of working stock solutions were then diluted in 800 μL of culture media, yielding concentrations of 125.00, 31.25, 7.81, 1.95, 0.49, 0.12, and 0.00 μM in 1% DMSO. For the second phase of testing, compounds showing anthelmintic activity with the LDA were tested in a second round at higher concentrations than in the first phase of testing. Initial stocks of 50 mM were prepared for compounds NSC133100, NSC177383, NSC145612, and NSC56410 using 100% DMSO as a solvent. Initial stock solutions (25-μL portions) were then diluted in 475 μL of culture media consisting of 65% Lauria-Bertani (LB) (Thermo Fisher Scientific, Branchburg, NJ), 25% NCTC (Sigma-Aldrich), 10% fetal bovine serum (Atlanta Biologicals, Flowery Branch, GA), Pen/Strep (Sigma-Aldrich) at a final concentration of […], and amphotericin B (Sigma-Aldrich) at a final concentration of […]. The working stock solutions yielded concentrations of 2,500.00, 625.00, 156.30, 39.10, 9.80, 2.40, and 0.00 μM in 5% DMSO for each compound. In each well in the plate, 200 μL of working stock solutions were then diluted in 800 μL of culture media, yielding final concentrations of 500.00, 125.00, 31.30, 7.81, 1.95, 0.49, and 0.00 μM in 1% DMSO.
For the motility assays, 24-well plates with inserts were used (Costar, catalog no. 3379; Corning, Inc., Corning, NY). Portions (640 μL) of culture media were added to each well, and approximately 50 exsheathed larvae contained in 160 μL of culture media in each insert. Once pretreatment readings were taken, 160 μL of the drug solution was added to the well, and another 40 μL was added to the insert, reaching the final concentrations described in the protocol above. All concentrations were tested in triplicate. […]

CO[C@H]1/C=C/O[C@@]2(C)Oc3c(C)c(O)c4c(O)c(cc(O)c4c3C2=O)NC(=O)/C(C)=C\C=C\[C@H](C)[C@H](O)[C@@H](C)[C@@H](O)[C@@H](C)[C@H](OC(C)=O)[C@@H]1C [NSC133100]
Percent inhibition of larval motility (0.12 µM, 1 hour): -7.4%
Percent inhibition of larval motility (0.12 µM, 4 hours): 14.9%
Percent inhibition of larval motility (0.12 µM, 24 hours): 22.9%
Percent inhibition of larval motility (0.12 µM, 48 hours): 8.7%
Percent inhibition of larval motility (0.12 µM, 72 hours): 26.1%
Percent inhibition of larval motility (0.12 µM, 96 hours): 7.4%
Percent inhibition of larval motility (0.12 µM, Initial): -93.9%
Percent inhibition of larval motility (0.49 µM, 1 hour): -29.1%
Percent inhibition of larval motility (0.49 µM, 4 hours): 4.3%
Percent inhibition of larval motility (0.49 µM, 24 hours): 8.0%
Percent inhibition of larval motility (0.49 µM, 48 hours): -9.5%
Percent inhibition of larval motility (0.49 µM, 72 hours): -14.9%
Percent inhibition of larval motility (0.49 µM, 96 hours): -9.0%
Percent inhibition of larval motility (0.49 µM, Initial): -118.5%
Percent inhibition of larval motility (1.95 µM, 1 hour): -57.6%
Percent inhibition of larval motility (1.95 µM, 4 hours): -16.4%
Percent inhibition of larval motility (1.95 µM, 24 hours): -8.4%
Percent inhibition of larval motility (1.95 µM, 48 hours): -37.5%
Percent inhibition of larval motility (1.95 µM, 72 hours): -49.0%
Percent inhibition of larval motility (1.95 µM, 96 hours): -50.7%
Percent inhibition of larval motility (1.95 µM, Initial): -159.9%
Percent inhibition of larval motility (7.81 µM, 1 hour): 27.5%
Percent inhibition of larval motility (7.81 µM, 4 hours): 9.1%
Percent inhibition of larval motility (7.81 µM, 24 hours): 25.3%
Percent inhibition of larval motility (7.81 µM, 48 hours): 35.3%
Percent inhibition of larval motility (7.81 µM, 72 hours): 32.1%
Percent inhibition of larval motility (7.81 µM, 96 hours): 38.0%
Percent inhibition of larval motility (7.81 µM, Initial): -74.0%
Percent inhibition of larval motility (31.25 µM, 1 hour): 10.6%
Percent inhibition of larval motility (31.25 µM, 4 hours): 7.1%
Percent inhibition of larval motility (31.25 µM, 24 hours): 9.0%
Percent inhibition of larval motility (31.25 µM, 48 hours): 35.2%
Percent inhibition of larval motility (31.25 µM, 72 hours): 19.9%
Percent inhibition of larval motility (31.25 µM, 96 hours): 28.7%
Percent inhibition of larval motility (31.25 µM, Initial): -64.8%
Percent inhibition of larval motility (125 µM, 1 hour): 4.3%
Percent inhibition of larval motility (125 µM, 4 hours): -12.0%
Percent inhibition of larval motility (125 µM, 24 hours): 3.2%
Percent inhibition of larval motility (125 µM, 48 hours): 23.2%
Percent inhibition of larval motility (125 µM, 72 hours): 3.1%
Percent inhibition of larval motility (125 µM, 96 hours): 19.2%
Percent inhibition of larval motility (125 µM, Initial): -8.9%
anthelmintic activity in LMA: no anthelmintic activity

CO[C@@H]1/C=C/O[C@@]2(C)Oc3c(C)c(O)c4c(c3C2=O)C(=N[C@@H]2CC[C@@H](O)O[C@H]2C)C=C(NC(=O)/C(C)=C\C(=O)[C@@H]2C[C@@H]2[C@H](O)[C@@H](C)[C@@H](O)[C@@H](C)[C@H](OC(C)=O)[C@@H]1C)C4=O [NSC177383]
Percent inhibition of larval motility (0.12 µM, 1 hour): 29.41%
Percent inhibition of larval motility (0.12 µM, 4 hours): 4.95%
Percent inhibition of larval motility (0.12 µM, 24 hours): 28.20%
Percent inhibition of larval motility (0.12 µM, 48 hours): 2.41%
Percent inhibition of larval motility (0.12 µM, 72 hours): 4.89%
Percent inhibition of larval motility (0.12 µM, 96 hours): -16.32%
Percent inhibition of larval motility (0.12 µM, Initial): -1.62%
Percent inhibition of larval motility (0.49 µM, 1 hour): 25.94%
Percent inhibition of larval motility (0.49 µM, 4 hours): 18.27%
Percent inhibition of larval motility (0.49 µM, 24 hours): 23.09%
Percent inhibition of larval motility (0.49 µM, 48 hours): 12.98%
Percent inhibition of larval motility (0.49 µM, 72 hours): -5.94%
Percent inhibition of larval motility (0.49 µM, 96 hours): -72.91%
Percent inhibition of larval motility (0.49 µM, Initial): -11.69%
Percent inhibition of larval motility (1.95 µM, 1 hour): 30.56%
Percent inhibition of larval motility (1.95 µM, 4 hours): 33.37%
Percent inhibition of larval motility (1.95 µM, 24 hours): 18.80%
Percent inhibition of larval motility (1.95 µM, 48 hours): 14.16%
Percent inhibition of larval motility (1.95 µM, 72 hours): -3.70%
Percent inhibition of larval motility (1.95 µM, 96 hours): -23.78%
Percent inhibition of larval motility (1.95 µM, Initial): 21.82%
Percent inhibition of larval motility (7.81 µM, 1 hour): 26.94%
Percent inhibition of larval motility (7.81 µM, 4 hours): 26.72%
Percent inhibition of larval motility (7.81 µM, 24 hours): 22.63%
Percent inhibition of larval motility (7.81 µM, 48 hours): 34.44%
Percent inhibition of larval motility (7.81 µM, 72 hours): 14.00%
Percent inhibition of larval motility (7.81 µM, 96 hours): -53.76%
Percent inhibition of larval motility (7.81 µM, Initial): 22.03%
Percent inhibition of larval motility (31.25 µM, 1 hour): 14.47%
Percent inhibition of larval motility (31.25 µM, 4 hours): 38.95%
Percent inhibition of larval motility (31.25 µM, 24 hours): 18.83%
Percent inhibition of larval motility (31.25 µM, 48 hours): 26.89%
Percent inhibition of larval motility (31.25 µM, 72 hours): 16.58%
Percent inhibition of larval motility (31.25 µM, 96 hours): -23.43%
Percent inhibition of larval motility (31.25 µM, Initial): 28.34%
Percent inhibition of larval motility (125 µM, 1 hour): 42.55%
Percent inhibition of larval motility (125 µM, 4 hours): 10.81%
Percent inhibition of larval motility (125 µM, 24 hours): 16.94%
Percent inhibition of larval motility (125 µM, 48 hours): 42.97%
Percent inhibition of larval motility (125 µM, 72 hours): 27.79%
Percent inhibition of larval motility (125 µM, 96 hours): 41.45%
Percent inhibition of larval motility (125 µM, Initial): 22.02%
anthelmintic activity in LMA: no anthelmintic activity
